Marks after values point to notes of the source that are not given here.
Key:
Assay type in all cases: cell-based
eIF4E = eIF4E inhibitor screen: luciferase under FGF 5′UTR in FaDu cells (highly cap-dependent translation); conditions: for inhibition of highly cap-dependent translation (summary statement): summary in the disclosure
ARE from TNF-α = assay: ARE screen: luciferase under post-transcriptional control of the ARE from TNF-α in RAW 264.7 cells; conditions: six concentrations 10 nM-3300 nM, 24 hr (FIG. 10)
Excerpt: Development of ARE Screen: The regulation of TNF-α and other cytokines that are involved in inflammation and cancer progression occurs, in part, at the post-transcriptional level through an AU-rich element in the 3′ UTR called ARE. The ARE regulates both the stability and the translational efficiency of the mRNA and thus represents a potential target for novel anti-inflammatory molecules. The 3′ UTR from TNF-α, which contains the ARE, was cloned in the proper orientation and used to screen a compound library as reported in reference 55. Briefly, the 3′ UTR was cloned into pMS 110, and both the UTR and parental plasmids were stably transfected into RAW264.7 cells, a macrophage cell line. Individual clones were propagated and tested for luciferase activity. […] The UTR-containing clones responded to LPS by inducing luciferase expression similar to the endogenous increase in TNF-α following LPS stimulation. […] Thus, molecules identified with this screening assay are also useful as anti-cancer agents. By analogy, thalidomide, which has been reported to work in part through posttranscriptional regulation of TNF-α, has been approved for the treatment of multiple myeloma and is now in development for the treatment of cancers.
As in the eIF4E assay, AREs are responsible for post-transcriptional regulation of gene expression, influencing both translation and mRNA stability. […]

[1] = tested on: Human umbilical vein endothelial cells (HUVEC); assay: Trypan blue viability count in HUVEC; conditions: human, 48 h, 10 μM
Protocol: Additional compounds have also been tested for their ability to inhibit both TNF-α-induced NF-κB—expression and PMA-induced AP-1 expression. In both tests, the compound was added for 1 h, then the appropriate inducer was added, and luciferase activity was monitored 24 h later. Values were then normalized to the vehicle control, DMSO. Following the initial luciferase screens, studies were conducted to assess the cytotoxicity of the compounds in normal cells such as VSMC, HUVEC, or HPT cells. Human umbilical vein endothelial cells (HUVEC) represent the normal endothelium, vascular smooth muscle cells (VSMC) were represented by cells from the adult rat aorta, and human proximal tubule (HPT) cells represent the normal proximal tubule in vivo. These cells were grown to near confluency in multi-well plates, and were then treated for 48 h with either vehicle (0.1% DMSO) or 10 μM of each drug candidate. Following treatment, the media from the VSMC and HUVEC incubations were removed, and the amount of lactate dehydrogenase (LDH) released into the medium was determined with a commercial kit. LDH is normally confined to the cytosol, and its release represents “leakiness” of the plasma membrane. LDH activity was expressed as % increase over vehicle-treated cells. In another assay of viability, the treated VSMC and HUVEC were removed by trypsinization and treated with trypan blue, a dye that is taken up only by dead cells. The number of both live and dead cells was counted using an automated cell viability analyzer. The % decrease in numbers of viable cells was determined. Toxicity in the treated HPT cells was determined by the ethidium homodimer (EthHD) uptake assay. EthHD is a fluorescent dye that is excluded from live cells, but is taken up by cells that have lost permeability barriers. Inside the cell, EthHD produces a strong fluorescent signal, which is proportional to the number of dead cells. Results were expressed as a % increase in cell death over vehicle-treated cells. The lead compounds were also tested in two pairs of cell lines from either the skin or prostate, one tumorigenic and one non-tumorigenic, to test for any differences in toxicity or heightened sensitivity in the tumorigenic lines. The cells were treated for 48 h with vehicle (0.1% DMSO) or 10 μM of each drug candidate. Following treatment, the viability of the cells was determined by the MTT assay. In this assay, the MTT dye is converted only in viable cells by intracellular enzymes to a colorimetric product that is quantitated by a microplate reader.

Compound	inhibition of highly cap-dependent translation (summary statement) (eIF4E)	luciferase expression in the presence of ARE (ARE from TNF-α)	Viable Cells % Decrease HUVEC [1]	luciferase expression under the control of the FGF 5′UTR (eIF4E; 1.0 μM, 48 h, FaDu UTR cells, normalized to DMSO (FIG. 8))	inhibition of luciferase activity (FGF 5′UTR) (eIF4E; highest concentration tested) [%]
COc1ccc(-n2c(-c3sc(Nc4ccc(Cl)cc4)nc3-c3ccccc3)nc3ccccc3c2=O)cc1 [Example 225, 2-[2-(4-Chloro-phenylamino)-4-phenyl-thiazol-5-yl]-3-(4-methoxyphenyl)-3H-quinazolin-4-one]	capable of inhibiting	substantial dose response			
CNc1nc(C)c(-c2nc3ccccc3c(=O)n2-c2ccc(Cl)cc2)s1 [Example 244, 2-(4-Methyl-2-methylamino-thiazol-5-yl)-3-(4-chloro-phenyl)-3H-quinazolin-4-one]			63# %		
Bis-[2-(4-Chloro-phenylamino)-4-benzayl-thiazole-5-yl]-methanone [Example 134]	capable of inhibiting			inhibited luciferase expression	> 60

— US8829014B2, “Thiazole and thiophene analogues, and their use in treating autoimmune diseases and cancers” (Board of Supervisors of Louisiana State University and …, priority 2006, dated 2014)
